The values below come from patent US6716851B2, “Substituted 2-aryl-4-arylaminopyrimidines and analogs as activators or caspases and inducers of apoptosis and the use thereof” (Cytovia, Inc., priority 2000, dated 2004).

Counter-ions that a name gives are not always drawn.

What is called EC50 is the concentration needed to bring the measured effect to its halfway point.

One assay relates to T-47D cells. Put plainly: Caspase cascade activation (N-(Ac-DEVD)-N'-ethoxycarbonyl-R110 fluorogenic substrate) in T-47D cells. It counts as cell-based, Human. Particulars: 48 h incubation; for EC50: Homo sapiens, T47D, caspase activation potency, read-out: T47 EC50; for T47 Ratio 48 hr: caspase activity: ratio of net RFU of test compound to control. The method in brief: (§1)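 EC50 comes from sigmoidal fitting of the net RFU ratio over DMSO control, read at ex 485/em 530 nm 3 h after adding 14 μM Ac-DEVD-R110 in lysolecithin/DTT/PIPES pH 7.2 buffer. Compound (0.016-10 μM final) was applied to cells for 48 h at 37 °C beforehand.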

The test system of another assay is ZR-75-1 cells. The assay can be described thus: Caspase cascade activation (N-(Ac-DEVD)-N'-ethoxycarbonyl-R110 fluorogenic substrate) in ZR-75-1 cells. The format is cell-based, Human. To be noted: ZR-75-1, 48 h incubation; for EC50: Homo sapiens, caspase activation potency; for ZR Ratio 48 hr: caspase activity: ratio of net RFU of test compound to control. The method in brief: as §1

Take `COc1cc(Nc2cc(C(F)(F)F)nc(-c3cccnc3)n2)c(OC)cc1Cl` [Example 130, 4-(4-Chloro-2,5-dimethoxyanilino)-2-(3-pyridinyl)-6-(trifluoromethyl)pyrimidine hydrochloride]: in the assay with T-47D cells, the 50% effective concentration (EC50) was determined as 0.295 µM and the “T47 Ratio 48 hr” value is on record as 11.3. Moreover, in the assay on ZR-75-1 cells, the half-maximal effective concentration (EC50) was 0.167 µM and the “ZR Ratio 48 hr” value was 9.7.

As to `Oc1ccc(Cl)c(Nc2cc(C(F)(F)F)nc(-c3cccnc3)n2)c1` [Example 106, 4-(2-Chloro-5-hydroxyanilino)-2-(3-pyridinyl)-6-(trifluoromethyl)pyrimidine], in the assay with T-47D cells, the EC50 is 0.183 µM and the “T47 Ratio 48 hr” value was 9.0. For the same compound, in the assay on ZR-75-1 cells, the EC50 amounted to 0.982 µM and the “ZR Ratio 48 hr” value is on record as 2.4.

Regarding `COc1cccc(Nc2nc(-c3ccc(C(F)(F)F)cn3)nc(C)c2Cl)c1` [Example 15, 4-(3-Methoxyanilino)-5-chloro-6-methyl-2-[5-(trifluoromethyl)-2-pyridinyl]pyrimidine], in the assay with T-47D cells, the half-maximal effective concentration (EC50) was > 5 µM and the “T47 Ratio 48 hr” value is reported as 2.5. Moreover, in the assay with ZR-75-1 cells, the EC50 is > 5 µM and the “ZR Ratio 48 hr” value is given as 2.7.

As for `Cc1nccc(-c2cccc(Nc3cc(C(F)(F)F)nc(-c4cccnc4)n3)c2)n1` [Example 59, 4-[3-(2-Methyl-pyrimidin-4-yl)anilino]-2-(3-pyridinyl)-6-(trifluoromethyl)pyrimidine], in the assay on T-47D cells, the EC50 is > 5 µM and the “T47 Ratio 48 hr” value is on record as 1.6. Further, in the assay on ZR-75-1 cells, the EC50 is > 5 µM and the “ZR Ratio 48 hr” value came to 1.1.

`Cl.Oc1cccc(Nc2cc(C(F)(F)F)nc(-c3ccccn3)n2)c1` [Example 69, 4-(3-Hydroxyanilino)-2-(2-pyridinyl)-6-(trifluoromethyl)pyrimidine hydrochloride]: in the assay with T-47D cells, the 50% effective concentration (EC50) was determined as 0.382 µM and the “T47 Ratio 48 hr” value amounted to 14.2. In the assay with ZR-75-1 cells, the EC50 came to 0.127 µM and the “ZR Ratio 48 hr” value was 10.9.

For the compound `FC(F)(F)c1cc(Nc2cccc(Oc3ccccc3)c2)nc(-c2cccnc2)n1` [Example 67, 4-(3-Phenoxyanilino)-2-(3-pyridinyl)-6-(trifluoromethyl)pyrimidine], in the assay with T-47D cells, the EC50 was > 5 µM and the “T47 Ratio 48 hr” value was 1.5. For the same compound, in the assay on ZR-75-1 cells, the EC50 was > 5 µM and the “ZR Ratio 48 hr” value was 1.2.

In the case of `COc1cc(C)c(Nc2cc(C(F)(F)F)nc(-c3ccccn3)n2)cc1OC.Cl` [Example 152, 4-(4,5-Dimethoxy-2-methylanilino)-2-(2-pyridinyl)-6-(trifluoromethyl)pyrimidine hydrochloride], in the assay on T-47D cells, the EC50 was 0.035 µM and the “T47 Ratio 48 hr” value came to 14.6. Besides, in the assay on ZR-75-1 cells, the concentration for a half-maximal effect (EC50) is 0.212 µM and the “ZR Ratio 48 hr” value amounted to 8.6.

As to `COc1ccc(Cl)cc1Nc1cc(C(F)(F)F)nc(-c2cccnc2)n1` [Example 180, 4-(5-Chloro-2-methoxyanilino)-2-(3-pyridinyl)-6-trifluoromethylpyrimidine], in the assay with T-47D cells, the EC50 was 0.637 µM and the “T47 Ratio 48 hr” value came to 15.1. Besides, in the assay on ZR-75-1 cells, a half-maximal effect (EC50) was put at 0.698 µM and the “ZR Ratio 48 hr” value turned out to be 8.7.

Regarding `Cc1ccc(C)c(Nc2cc(C(F)(F)F)nc(-c3cccnc3)n2)c1` [Example 68, 4-(2,5-Dimethylanilino)-2-(3-pyridinyl)-6-(trifluoromethyl)pyrimidine], in the assay with T-47D cells, the concentration giving a half-maximal response (EC50) was 0.247 µM and the “T47 Ratio 48 hr” value stood at 20.9. Besides, in the assay with ZR-75-1 cells, the EC50 was 0.13 µM and the “ZR Ratio 48 hr” value is listed as 17.9.

Turning to `COc1ccc(C)c(Nc2cc(C(F)(F)F)nc(-c3cnccn3)n2)c1` [Example 80, 4-(5-Methoxy-2-methylanilino)-2-(2-pyrazinyl)-6-(trifluoromethyl)pyrimidine], in the assay on T-47D cells, the concentration giving a half-maximal response (EC50) turned out to be 0.064 µM and the “T47 Ratio 48 hr” value is 8.5. Also, in the assay on ZR-75-1 cells, the EC50 worked out at 0.243 µM and the “ZR Ratio 48 hr” value turned out to be 5.9.
